The text below walks through data of patent publication US20090012018A1, “Inhibition of pancretic cancer cell growth” (priority 2004, published 2009).

Common to all, as to format: cell-based, human
Assay [1] relates to BxPC3. Description: Sensitivity of pancreatic adenocarcinoma cells to drug treatment (cell proliferation, apoptosis). The protocol:
(§1) Human pancreatic adenocarcinoma cell lines HPAC, SW1990, Mpanc-96, SU86.86, PL45, Panc10.05 Panc2.03 and Panc8.13 were obtained from ATCC; cell lines MiaPaCa2, Panc1, CFPAC-1, HPAFII, Capan-2, AsPC1, Hs766T and BxPC3 were a gift from Schering Plough; cell lines COLO357, L3.3, L3.6 pl and L3.6 sl were a gift from I. Fidler; cell lines Panc3.27, Panc4.21, Panc5.04, Panc2.13, Panc1.28 and Panc6.03 were a gift from E. Jaffee. BxPC3 and the Panc cell lines were grown in RPMI medium (Gibco) supplemented with 10% FBS, L-glutamine and penicillin/streptomycin; medium for the Panc cells was also supplemented with insulin-transferrin-selenium (Gibco). The CFPAC-1, Panc1, AsPC1, Hs766T, L3.6sl and L3.6pl were grown in DMEM without phenol red (CellGro), supplemented with 10% FBS. Derivation and culture of PDC cells was as described (Schreiber et al., Gastroenterology, 127:250-260, 2004).
(§2) The small chemical inhibitors were used at the following final concentrations: up to 250 μM for sulindac (Sigma), up to 300 μM for sulindac sulfone (Calbiochem or ICN), NS-398 up to 25 μM (Calbiochem), sodium salicylate up to 100 μM (Calbiochem). […] To test for drug sensitivity, the cells were plated in control medium or in medium containing the drug of interest for 2 to 5 days. The culture media was changed every 48 hrs. The images showing cell morphology were taken with a Nikon inverted microscope.
(§3) Cells were pulsed with 10 μM BrdU for two hours and then harvested and fixed. BrdU incorporation was detected with a fluorescein isothiocyanate conjugated anti-BrdU antibody (BD Biosciences) and total DNA was stained with 7-AAD (BD Biosciences). FACS analysis was performed according to the BD Biosciences BrdU flow kit manual. Cells in S-phase were defined as the BrdU-positive cell population with a DNA content between 2N and 4N. According to the manual, apoptotic cells were defined as a subpopulation of G0/G1 cells with DNA content lower than the diploid amount (<2N).

The test system of assay [2] is Panc4.21. The description is as above. The procedure: as §1, §2, §3
Assay [3] deals with L3.6sl. The assay is described as above. The protocol:
as §1, §2, §3

The test system of assay [4] is pancreatic adenocarcinoma cell lines. Description: Growth, BrdU incorporation and apoptosis of pancreatic cancer cell lines (results stated for the lines together). Conditions: 7/13 lines. The procedure:
as §2, §3
The cell lines were plated the day prior to transfection at a density of 8×10^4 cells/well in a 24-well plate. The luciferase reporter constructs used included: Top-Flash and Fop-Flash containing multimerized Tcf-Lef binding sites or nonfunctional sites, respectively; TK-Luc (Promega); and GliBS containing 8×Gli binding sites upstream of the TK minimal promoter (Sasaki et al., Development, 124:1313-1322, 1997). In different experiments, the reporter constructs were co-transfected with an expression vector containing a dominant-negative form of Lef1 or the endogenous Wnt inhibitor Icat. The dominant negative Lef1 (gift from S. Pleasure) was generated by cloning the 63 amino acid N-terminal deleted form of Lef1 into the pEF5 plasmid. This construct also contains an IRES-EGFP cassette. The cDNA coding for the Icat protein was cloned into pIRES2-EGFP (BD Biosciences Clontech). Transfections were performed using the Effectene transfection reagent […] according to the user's manual. A Renilla luciferase plasmid (Promega) was included to control for transfection efficiency. Transfected cells were cultured in medium containing serum. […] Cells were harvested 24 hrs after transfection, and luciferase activity was assayed using the Dual Luciferase kit (Promega), according to the user's manual.
Small interfering RNA (siRNA) oligonucleotides against β-catenin containing two thymidine residues (dTdT) at the 3′ end of the sequence (5′-[…] […] T-3′ set forth as SEQ ID NO:57) were used for treatment of cancer cells as described (Verma et al., Clin Cancer Res, 9:1291-1300, 2003). The GLI1 siRNA (sense 5′-[…] […]-3′ set forth as SEQ ID NO:58) was also used as described (Sanchez et al., Proc Natl Acad Sci USA 101:12561-12566, 2004). Small interfering RNA against GLI2 was ordered against the target sequence 5-[…] […] A-3′, set forth as SEQ ID NO:59). […] Cells were transfected with oligofectamine (Invitrogen) according to the user's manual, with a final siRNA concentration of 100 or 300 nM. Transfected cells were incubated for 48 hrs before harvesting.
For orientation: Uptake of a labelled nucleoside into DNA is a usual measure of proliferation.

[5] abbreviates: reduction in cell proliferation.

Consider `CC1=C(CC(=O)O)c2cc(F)ccc2/C1=C\c1ccc([S+](C)[O-])cc1` (stereo not shown) [sulindac], for which the induced apoptosis entry in assay [1] (concentration dependent), in assay [2] (concentration dependent) and in assay [3] (concentration dependent) was “two to four-fold” in each case. Also, the “Sulindac Sensitivity” value in assay [1] (setting [5]), in assay [2] (setting [5]) and in assay [3] (setting [5]) was “Positive” in each case. The cell growth result is “strongly inhibits growth” in assay [1] (vs untreated controls, FIG. 3B); “strongly inhibits growth” in assay [2] (vs untreated controls, FIG. 3B); “strongly inhibits growth” in assay [3] (vs untreated controls, FIG. 3B). Moreover, the “lines tested with measurable reduction in cell proliferation” value in assay [4] came out at 54%.
